The results in this text go back to ChEMBL document CHEMBL4433219, “EC18 as a Tool To Understand the Role of HCN4 Channels in Mediating Hyperpolarization-Activated Current in Tissues” (ACS Med Chem Lett, 2019).

Test [1] concerns the target T1, Potassium/sodium hyperpolarization-activated cyclic nucleotide-gated channel 2 (Mus musculus, UniProt O88703).
T1 sequence (O88703 whole entry): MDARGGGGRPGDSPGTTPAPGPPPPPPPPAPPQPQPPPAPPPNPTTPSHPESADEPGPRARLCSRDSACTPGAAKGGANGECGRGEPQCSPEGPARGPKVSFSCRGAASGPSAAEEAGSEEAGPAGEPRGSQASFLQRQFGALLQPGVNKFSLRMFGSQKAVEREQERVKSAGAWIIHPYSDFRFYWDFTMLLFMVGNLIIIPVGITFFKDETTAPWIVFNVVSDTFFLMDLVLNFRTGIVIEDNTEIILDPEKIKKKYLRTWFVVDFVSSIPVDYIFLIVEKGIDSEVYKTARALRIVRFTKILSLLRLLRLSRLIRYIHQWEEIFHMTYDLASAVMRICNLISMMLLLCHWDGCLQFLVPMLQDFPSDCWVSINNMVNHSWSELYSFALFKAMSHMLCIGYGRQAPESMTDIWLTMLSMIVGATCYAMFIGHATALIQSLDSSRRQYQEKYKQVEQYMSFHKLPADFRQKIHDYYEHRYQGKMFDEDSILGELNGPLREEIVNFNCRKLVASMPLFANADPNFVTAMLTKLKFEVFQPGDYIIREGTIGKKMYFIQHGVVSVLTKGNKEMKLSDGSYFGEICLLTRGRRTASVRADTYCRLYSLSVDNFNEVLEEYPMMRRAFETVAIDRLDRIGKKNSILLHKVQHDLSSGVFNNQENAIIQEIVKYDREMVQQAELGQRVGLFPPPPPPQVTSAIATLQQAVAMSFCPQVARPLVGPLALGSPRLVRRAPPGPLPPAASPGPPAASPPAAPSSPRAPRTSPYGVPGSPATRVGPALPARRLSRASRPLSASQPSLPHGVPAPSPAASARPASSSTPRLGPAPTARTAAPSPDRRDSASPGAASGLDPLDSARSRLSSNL
The test can be described thus: Inhibition of mouse HCN2 expressed in HEK293 cells assessed as reduction in hyperpolarization activated current at holding potential of -80 mV by patch clamp assay. The test is classed as cell-based. Background: In patch-clamp work, channel activity is measured electrically.

Test [2] deals with Cardiac muscle of left ventricle. The test can be described thus: Effect on cardiac electrophysiological profile in Mongrel perfused dog heart left ventricular muscle stimulated at basic cycle length of 1000 milliseconds assessed as maximum diastolic potential at 1 uM measured after 25 mins by glass capillary microelectrode based electrophysiology assay (reference value: -83.8 +/- 2.28 mV). The class given is functional, Canis lupus familiaris.

Test [3] has the same test system. Put plainly: Effect on cardiac electrophysiological profile in Mongrel perfused dog heart left ventricular muscle stimulated at basic cycle length of 1000 milliseconds assessed as maximum diastolic potential at 10 uM measured after 25 mins by glass capillary microelectrode based electrophysiology assay (reference value: -83.8 +/- 2.28 mV). The class given is functional, Canis lupus familiaris.

The test system is the same in test [4]. Put plainly: Effect on cardiac electrophysiological profile in Mongrel perfused dog heart left ventricular muscle stimulated at basic cycle length of 1000 milliseconds assessed as action potential time duration at 75% of repolarization at 10 uM measured after 25 mins by glass capillary microelectrode based electrophysiology assay (reference value: 199.7 +/- 16.87 milliseconds). The test is classed as functional, Canis lupus familiaris.

Test [5] has as its target T2, Potassium/sodium hyperpolarization-activated cyclic nucleotide-gated channel 4 (Mus musculus, UniProt O70507).
T2 sequence (O70507 whole entry): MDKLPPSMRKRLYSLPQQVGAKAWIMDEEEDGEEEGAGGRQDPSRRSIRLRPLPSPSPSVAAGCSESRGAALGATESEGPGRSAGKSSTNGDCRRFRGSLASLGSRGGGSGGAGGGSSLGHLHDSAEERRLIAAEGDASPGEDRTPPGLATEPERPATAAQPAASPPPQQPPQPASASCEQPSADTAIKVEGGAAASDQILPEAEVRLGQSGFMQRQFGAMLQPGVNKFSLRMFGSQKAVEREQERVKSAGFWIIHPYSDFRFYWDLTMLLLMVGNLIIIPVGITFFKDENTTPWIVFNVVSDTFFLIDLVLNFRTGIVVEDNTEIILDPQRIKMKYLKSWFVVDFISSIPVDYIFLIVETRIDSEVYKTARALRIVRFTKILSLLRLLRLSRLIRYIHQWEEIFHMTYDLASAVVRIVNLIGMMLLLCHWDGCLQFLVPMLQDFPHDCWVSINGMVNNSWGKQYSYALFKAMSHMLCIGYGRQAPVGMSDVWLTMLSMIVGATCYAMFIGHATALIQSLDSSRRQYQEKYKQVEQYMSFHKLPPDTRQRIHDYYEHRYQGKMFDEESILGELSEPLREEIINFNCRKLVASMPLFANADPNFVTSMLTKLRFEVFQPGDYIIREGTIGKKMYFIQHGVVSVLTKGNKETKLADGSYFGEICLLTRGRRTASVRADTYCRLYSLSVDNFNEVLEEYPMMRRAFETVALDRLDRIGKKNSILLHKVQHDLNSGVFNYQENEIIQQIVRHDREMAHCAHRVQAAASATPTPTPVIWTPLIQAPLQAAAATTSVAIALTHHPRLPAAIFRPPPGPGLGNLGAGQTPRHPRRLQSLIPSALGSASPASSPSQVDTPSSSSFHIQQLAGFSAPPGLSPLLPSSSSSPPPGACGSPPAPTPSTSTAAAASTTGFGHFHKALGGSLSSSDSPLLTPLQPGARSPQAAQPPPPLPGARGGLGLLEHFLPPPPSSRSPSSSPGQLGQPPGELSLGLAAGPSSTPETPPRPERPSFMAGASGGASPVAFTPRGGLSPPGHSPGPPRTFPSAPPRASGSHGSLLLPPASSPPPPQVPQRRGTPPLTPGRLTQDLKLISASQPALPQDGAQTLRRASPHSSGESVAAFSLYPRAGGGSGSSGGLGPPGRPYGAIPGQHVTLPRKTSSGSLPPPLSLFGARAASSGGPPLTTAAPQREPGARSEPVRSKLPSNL
Put plainly: Inhibition of HCN4 in C57BL/6J mouse thalamocortical relay neuron assessed as reduction in hyperpolarization current at holding potential of -120 mV by whole-cell patch clamp assay.

The species entered for a further test is Mus musculus. The test can be described thus: Effect on voltage-dependent K+ channel in C57BL/6J mouse thalamocortical relay neuron assessed as inhibition of step depolarization-induced K+ outward current at 10 uM by whole cell patch clamp assay relative to control.

For orientation: EC50 means the concentration that produces a half-maximal response. The inhibition is the percentage by which the read-out fell short of the control.

In the case of `COc1ccc(CCN(C)[C@@H]2CCC[C@H](N3CCc4cc(OC)c(OC)cc4CC3=O)C2)cc1OC` (racemic), the EC50 in test [1] is 19.3 µM; in test [5] it was 11 µM. Also, the Activity is listed as -84 mV in test [2] and -83 mV in test [3]. Further, the Time in test [4] came to 206 ms. Besides, the inhibition in the test listed under Mus musculus turned out to be 14.5%.
